According to ChEMBL document CHEMBL6109108, “A comprehensive review of fused imidazonaphthyridine derivatives: Synthetic approaches and biological applications” (Bioorg Med Chem, 2025):
≈ marks a conversion by molar mass, not a printed value.

Experiments:
Rattus norvegicus = assay: Anti-inflammatory activity against carrageenan-induced paw edema in rat assessed as inhibition of paw edema at 50 mg/kg, po relative to control; format: functional; design: scale not given: the % may be the effect or the level left
[1] = Antiproliferative activity against mouse BaF3/TRP-Met cells
Chikungunya virus = assay: Antiviral activity against Chikungunya virus infected in Vero E6 cells assessed as inhibition of virus-induced cytopathic effect incubated for 72 hrs by CellTiter Glo luminescence assay; format: functional, organism-based; settings: Vero C1008, 72 h
Bacillus subtilis [2] = assay: Antibacterial activity against Bacillus subtilis assessed as zone of inhibition at 200 ug/ml by agar disc diffusion method; format: functional; settings: read-out: IZ
Pseudomonas aeruginosa [3] = assay: Antibacterial activity against Pseudomonas aeruginosa assessed as zone of inhibition at 200 ug/ml by agar disc diffusion method; format: functional; settings: read-out: IZ
Staphylococcus aureus [4] = assay: Antibacterial activity against Staphylococcus aureus assessed as zone of inhibition at 250 ug/ml by agar disc diffusion method; format: functional; settings: read-out: IZ
Bacillus subtilis [5] = assay: Antibacterial activity against Bacillus subtilis assessed as zone of inhibition at 250 ug/ml by agar disc diffusion method; format: functional; settings: read-out: IZ
Pseudomonas aeruginosa [6] = assay: Antibacterial activity against Pseudomonas aeruginosa assessed as zone of inhibition at 150 ug/ml by agar disc diffusion method; format: functional; settings: read-out: IZ
Staphylococcus aureus [7] = assay: Antibacterial activity against Staphylococcus aureus assessed as zone of inhibition at 150 ug/ml by agar disc diffusion method; format: functional; settings: read-out: IZ
Bacillus subtilis [8] = assay: Antibacterial activity against Bacillus subtilis assessed as zone of inhibition at 150 ug/ml by agar disc diffusion method; format: functional; settings: read-out: IZ
Escherichia coli [9] = assay: Antibacterial activity against Escherichia coli assessed as zone of inhibition at 200 ug/ml by agar disc diffusion method; format: functional; settings: read-out: IZ
Staphylococcus aureus [10] = assay: Antibacterial activity against Staphylococcus aureus assessed as zone of inhibition at 200 ug/ml by agar disc diffusion method; format: functional; settings: read-out: IZ
Pseudomonas aeruginosa [11] = assay: Antibacterial activity against Pseudomonas aeruginosa assessed as zone of inhibition at 250 ug/ml by agar disc diffusion method; format: functional; settings: read-out: IZ
Escherichia coli [12] = assay: Antibacterial activity against Escherichia coli assessed as zone of inhibition at 150 ug/ml by agar disc diffusion method; format: functional; settings: read-out: IZ
Escherichia coli [13] = assay: Antibacterial activity against Escherichia coli assessed as zone of inhibition at 250 ug/ml by agar disc diffusion method; format: functional; settings: read-out: IZ
hERG (KCNH2) = hERG (KCNH2) (Homo sapiens, UniProt Q12809); assay: Inhibition of hERG potassium […] at 6.25 uM relative to control; format: toxicity
Staphylococcus aureus [14] = assay: Antibacterial activity against Staphylococcus aureus assessed as zone of inhibition at 35 ug/ml by agar well diffusion method; format: functional; settings: read-out: IZ
Escherichia coli [15] = assay: Antibacterial activity against Escherichia coli assessed as zone of inhibition at 25 ug/ml by agar well diffusion method; format: functional; settings: read-out: IZ
Escherichia coli [16] = assay: Antibacterial activity against Escherichia coli assessed as zone of inhibition at 35 ug/ml by agar well diffusion method; format: functional; settings: read-out: IZ
Staphylococcus aureus [17] = assay: Antibacterial activity against Staphylococcus aureus assessed as zone of inhibition at 25 ug/ml by agar well diffusion method; format: functional; settings: read-out: IZ
Staphylococcus aureus [18] = assay: Antibacterial activity against Staphylococcus aureus assessed as zone of inhibition at 10 ug/ml by agar well diffusion method; format: functional; settings: read-out: IZ
Escherichia coli [19] = assay: Antibacterial activity against Escherichia coli assessed as zone of inhibition at 10 ug/ml by agar well diffusion method; format: functional; settings: read-out: IZ
Escherichia coli [20] = assay: Antibacterial activity against Escherichia coli 209p assessed as reduction in bacterial growth by CLSI protocol based agar dilution method; format: functional
Pseudomonas aeruginosa [21] = assay: Antibacterial activity against Pseudomonas aeruginosa assessed as reduction in bacterial growth by CLSI protocol based agar dilution method; format: functional
Shigella flexneri = assay: Antibacterial activity against Shigella flexneri NIHJ assessed as reduction in bacterial growth by CLSI protocol based agar dilution method; format: functional
Staphylococcus aureus [22] = assay: Antibacterial activity against Staphylococcus aureus assessed as reduction in bacterial growth by CLSI protocol based agar dilution method; format: functional
[23] = target: Voltage-gated inwardly rectifying potassium channel KCNH2 (Homo sapiens, UniProt Q12809); assay: Inhibition of hERG; format: toxicity
Hepatitis C virus = assay: Antiviral activity against Hepatitis C virus genotype 2a infected in human Huh-7 cells assessed as reduction in viral infection; format: functional, organism-based, Hepacivirus hominis

Sequence of Voltage-gated inwardly rectifying potassium channel KCNH2 (Q12809 whole entry): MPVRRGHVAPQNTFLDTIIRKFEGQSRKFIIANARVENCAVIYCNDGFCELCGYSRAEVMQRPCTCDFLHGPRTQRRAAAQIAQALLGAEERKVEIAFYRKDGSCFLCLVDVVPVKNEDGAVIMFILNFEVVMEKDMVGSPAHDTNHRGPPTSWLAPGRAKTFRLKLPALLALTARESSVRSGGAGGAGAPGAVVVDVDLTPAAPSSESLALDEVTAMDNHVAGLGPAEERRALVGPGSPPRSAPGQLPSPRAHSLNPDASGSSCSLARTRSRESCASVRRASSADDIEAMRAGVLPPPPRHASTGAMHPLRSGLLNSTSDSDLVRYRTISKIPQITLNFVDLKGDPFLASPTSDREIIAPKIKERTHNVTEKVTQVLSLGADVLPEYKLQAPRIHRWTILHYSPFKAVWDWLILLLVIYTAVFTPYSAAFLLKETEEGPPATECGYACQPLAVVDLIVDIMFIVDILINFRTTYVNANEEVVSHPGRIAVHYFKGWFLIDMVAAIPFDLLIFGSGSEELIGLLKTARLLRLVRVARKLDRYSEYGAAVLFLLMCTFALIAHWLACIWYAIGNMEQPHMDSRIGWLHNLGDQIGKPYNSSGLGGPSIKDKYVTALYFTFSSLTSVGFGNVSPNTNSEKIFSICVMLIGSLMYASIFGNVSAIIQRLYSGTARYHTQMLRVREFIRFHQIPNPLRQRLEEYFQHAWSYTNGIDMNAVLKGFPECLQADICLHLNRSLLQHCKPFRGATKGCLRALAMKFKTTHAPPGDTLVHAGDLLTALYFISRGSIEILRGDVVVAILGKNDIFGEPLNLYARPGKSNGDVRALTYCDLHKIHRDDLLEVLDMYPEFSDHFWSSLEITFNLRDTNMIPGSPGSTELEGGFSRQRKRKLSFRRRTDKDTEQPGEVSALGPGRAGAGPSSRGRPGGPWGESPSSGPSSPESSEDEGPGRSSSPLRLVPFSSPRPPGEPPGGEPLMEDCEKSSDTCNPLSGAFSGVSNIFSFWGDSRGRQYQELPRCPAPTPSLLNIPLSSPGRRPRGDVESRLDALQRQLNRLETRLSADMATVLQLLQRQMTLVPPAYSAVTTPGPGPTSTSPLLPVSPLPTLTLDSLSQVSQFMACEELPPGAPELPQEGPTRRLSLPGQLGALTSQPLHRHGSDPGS
Sequence of hERG (KCNH2) (Q12809 whole entry, the tested form may be a part): as the sequence (Q12809 whole entry) above

## CCn1cnc2c3cccnc3n(-c3ccccc3)c(=O)c21
Rattus norvegicus
  Activity: 58.2%

## Cn1cnc2c3cccnc3n(-c3ccccc3)c(=O)c21
Rattus norvegicus
  Activity: 40%

## N[C@H]1CC[C@H](n2c(=O)n(Cc3ccc(Cl)c(Cl)c3)c3nc(Oc4ccc(C(=O)N5CCCCC5)cc4)c4cccnc4c32)CC1
[1]
  IC50: < 1000 nM

## FC(F)(F)c1cc(C(F)(F)F)c2ccc3nc(-c4nnco4)cn3c2n1
Chikungunya virus
  EC50: 203 nM

## O=[N+]([O-])c1cccc(-c2cc3cccnc3n3c2nc2ccc(O)cc23)c1
Bacillus subtilis [2]
  zone of inhibition at 200 µg/mL: 19 mm
Pseudomonas aeruginosa [3]
  zone of inhibition at 200 µg/mL: 20 mm
Staphylococcus aureus [4]
  zone of inhibition at 250 µg/mL: 22 mm
Bacillus subtilis [5]
  zone of inhibition at 250 µg/mL: 23 mm
Pseudomonas aeruginosa [6]
  zone of inhibition at 150 µg/mL: 17 mm
Staphylococcus aureus [7]
  zone of inhibition at 150 µg/mL: 18 mm
Bacillus subtilis [8]
  zone of inhibition at 150 µg/mL: 16 mm
Escherichia coli [9]
  zone of inhibition at 200 µg/mL: 22 mm
Staphylococcus aureus [10]
  zone of inhibition at 200 µg/mL: 20 mm
Pseudomonas aeruginosa [11]
  zone of inhibition at 250 µg/mL: 22 mm
Escherichia coli [12]
  zone of inhibition at 150 µg/mL: 17 mm
Escherichia coli [13]
  zone of inhibition at 250 µg/mL: 22 mm

## Cc1cc(C)c2ccc3nc(-c4ccc(F)cc4)c(CN4CCCCC4)n3c2n1
hERG (KCNH2)
  inhibition at 6.25 µM: 11%

## O=[N+]([O-])c1cccc(-c2cnc3c(-c4ccc(F)cc4Cl)cc4cccnc4n23)c1
Staphylococcus aureus [14]
  zone of inhibition at 35 µg/mL: 24 mm
Escherichia coli [15]
  zone of inhibition at 25 µg/mL: 16 mm
Escherichia coli [16]
  zone of inhibition at 35 µg/mL: 25 mm
Staphylococcus aureus [17]
  zone of inhibition at 25 µg/mL: 16 mm
Staphylococcus aureus [18]
  zone of inhibition at 10 µg/mL: 6 mm
Escherichia coli [19]
  zone of inhibition at 10 µg/mL: 6 mm

## CCn1cnc2cc3c(=O)c(C(=O)O)cn(CC)c3nc21
Escherichia coli [20]
  MIC: 3.13 µg/mL (≈ 10.9 µM)
Pseudomonas aeruginosa [21]
  MIC: > 100 µg/mL
Shigella flexneri
  MIC: 3.13 µg/mL (≈ 10.9 µM)
Staphylococcus aureus [22]
  MIC: 25 µg/mL (≈ 87.3 µM)

## COc1ccc(-c2nc3ccc4c(C)cc(C)nc4n3c2CN2CCC(C)CC2)cc1
[23]
  IC50: 1120 nM

## Cc1cccc(-c2cnc3ccc4c(C(F)(F)F)cc(C(F)(F)F)nc4n23)c1
Hepatitis C virus
  EC50: 2600 nM

## Cc1ccccc1-c1cnc2ccc3c(C(F)(F)F)cc(C(F)(F)F)nc3n12
Hepatitis C virus
  EC50: 2800 nM

## FC(F)(F)c1cc(C(F)(F)F)c2ccc3ncc(-c4cncnc4)n3c2n1
Hepatitis C virus
  EC50: > 20000 nM

## Fc1ccc(-c2cc3cccnc3n3c(-c4ccc(Cl)cc4)cnc23)c(Cl)c1
Staphylococcus aureus [14]
  zone of inhibition at 35 µg/mL: 24 mm
Escherichia coli [15]
  zone of inhibition at 25 µg/mL: 16 mm
Escherichia coli [16]
  zone of inhibition at 35 µg/mL: 25 mm
Staphylococcus aureus [17]
  zone of inhibition at 25 µg/mL: 16 mm
Staphylococcus aureus [18]
  zone of inhibition at 10 µg/mL: 6 mm
Escherichia coli [19]
  zone of inhibition at 10 µg/mL: 6 mm
